Values of other authors in US8673972B2, “Human papilloma virus as predictor of cancer prognosis” (Foundation Medicine, Inc., priority 2012, dated 2014).

Legend:
Settings in all cases: stated in words only
CDK9 = CDK9 (Homo sapiens, UniProt P50750)
CDK2 = CDK2 (Homo sapiens, UniProt P24941)
CDK1 = CDK1 (Homo sapiens, UniProt P06493)
CDK7 = CDK7 (Homo sapiens, UniProt P50613)
CDK4 = CDK4 (Homo sapiens, UniProt P11802)
CDK4, sequence (P11802 whole entry): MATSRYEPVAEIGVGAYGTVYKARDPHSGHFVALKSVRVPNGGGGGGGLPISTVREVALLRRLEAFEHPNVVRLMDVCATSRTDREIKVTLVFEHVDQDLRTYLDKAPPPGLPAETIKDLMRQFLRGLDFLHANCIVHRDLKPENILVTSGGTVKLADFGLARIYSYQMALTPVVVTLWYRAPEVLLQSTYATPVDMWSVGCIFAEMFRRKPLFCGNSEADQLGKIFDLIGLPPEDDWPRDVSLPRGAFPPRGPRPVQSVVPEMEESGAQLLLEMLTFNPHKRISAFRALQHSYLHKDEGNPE
CDK4, sequence (P24385 whole entry partner): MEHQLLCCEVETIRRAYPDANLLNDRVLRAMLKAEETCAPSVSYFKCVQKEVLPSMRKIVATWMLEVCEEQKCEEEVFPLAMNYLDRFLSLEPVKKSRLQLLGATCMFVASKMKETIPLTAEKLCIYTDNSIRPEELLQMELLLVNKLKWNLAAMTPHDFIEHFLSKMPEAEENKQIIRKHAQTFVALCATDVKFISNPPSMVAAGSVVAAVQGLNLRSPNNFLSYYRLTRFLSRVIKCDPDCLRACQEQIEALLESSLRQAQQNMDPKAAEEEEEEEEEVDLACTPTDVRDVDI

CDK1, sequence (P06493 whole entry): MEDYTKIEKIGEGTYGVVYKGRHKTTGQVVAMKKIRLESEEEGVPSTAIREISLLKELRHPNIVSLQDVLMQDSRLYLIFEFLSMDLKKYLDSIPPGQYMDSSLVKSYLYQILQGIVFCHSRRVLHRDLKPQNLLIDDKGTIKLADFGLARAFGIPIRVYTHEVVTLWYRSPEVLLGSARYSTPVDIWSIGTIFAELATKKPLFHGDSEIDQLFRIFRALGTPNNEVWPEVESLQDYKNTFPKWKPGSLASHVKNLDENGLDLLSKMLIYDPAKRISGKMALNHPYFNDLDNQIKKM
CDK1, sequence (P14635 whole entry partner): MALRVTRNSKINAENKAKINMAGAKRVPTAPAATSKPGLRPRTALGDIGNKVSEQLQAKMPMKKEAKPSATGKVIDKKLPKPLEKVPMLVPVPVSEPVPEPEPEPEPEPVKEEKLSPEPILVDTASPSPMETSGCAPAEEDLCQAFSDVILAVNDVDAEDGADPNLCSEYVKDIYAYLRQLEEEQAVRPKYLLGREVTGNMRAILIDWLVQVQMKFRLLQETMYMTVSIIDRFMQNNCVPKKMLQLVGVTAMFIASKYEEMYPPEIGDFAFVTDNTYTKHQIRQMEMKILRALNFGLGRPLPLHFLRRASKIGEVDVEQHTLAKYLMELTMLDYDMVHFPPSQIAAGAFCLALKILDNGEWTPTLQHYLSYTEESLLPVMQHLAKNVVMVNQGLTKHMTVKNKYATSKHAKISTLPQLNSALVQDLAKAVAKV
CDK9, sequence (P50750 whole entry): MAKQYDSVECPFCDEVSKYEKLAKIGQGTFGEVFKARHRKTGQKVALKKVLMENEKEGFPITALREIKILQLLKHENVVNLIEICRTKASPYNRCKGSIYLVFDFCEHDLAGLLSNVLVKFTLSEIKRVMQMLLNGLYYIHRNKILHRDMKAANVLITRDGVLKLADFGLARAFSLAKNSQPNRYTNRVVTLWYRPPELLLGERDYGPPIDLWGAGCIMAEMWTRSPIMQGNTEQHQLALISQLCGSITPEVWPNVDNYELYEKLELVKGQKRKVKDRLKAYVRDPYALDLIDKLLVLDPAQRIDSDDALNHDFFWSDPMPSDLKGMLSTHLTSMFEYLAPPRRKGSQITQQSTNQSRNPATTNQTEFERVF
CDK9, sequence (O60563 whole entry partner): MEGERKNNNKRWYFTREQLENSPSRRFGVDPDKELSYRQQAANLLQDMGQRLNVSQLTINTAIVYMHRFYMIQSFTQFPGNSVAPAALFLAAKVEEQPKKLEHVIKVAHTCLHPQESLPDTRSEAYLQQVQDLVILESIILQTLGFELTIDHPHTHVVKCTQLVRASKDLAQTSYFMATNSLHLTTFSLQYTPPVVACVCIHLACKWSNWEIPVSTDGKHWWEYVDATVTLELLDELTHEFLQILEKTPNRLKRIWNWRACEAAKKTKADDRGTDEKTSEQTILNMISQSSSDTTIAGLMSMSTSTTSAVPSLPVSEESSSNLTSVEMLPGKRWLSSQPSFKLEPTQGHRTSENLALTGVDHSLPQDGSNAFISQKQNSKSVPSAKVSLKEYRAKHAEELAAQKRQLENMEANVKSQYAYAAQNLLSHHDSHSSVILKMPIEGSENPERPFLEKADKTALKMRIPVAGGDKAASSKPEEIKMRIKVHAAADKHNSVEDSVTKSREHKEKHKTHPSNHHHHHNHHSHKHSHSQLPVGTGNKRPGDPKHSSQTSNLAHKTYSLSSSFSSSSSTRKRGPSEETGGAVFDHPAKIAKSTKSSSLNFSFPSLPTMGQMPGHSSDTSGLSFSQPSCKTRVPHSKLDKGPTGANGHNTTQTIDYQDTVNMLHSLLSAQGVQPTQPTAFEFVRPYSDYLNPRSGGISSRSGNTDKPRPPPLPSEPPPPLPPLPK
CDK7, sequence (P50613 whole entry): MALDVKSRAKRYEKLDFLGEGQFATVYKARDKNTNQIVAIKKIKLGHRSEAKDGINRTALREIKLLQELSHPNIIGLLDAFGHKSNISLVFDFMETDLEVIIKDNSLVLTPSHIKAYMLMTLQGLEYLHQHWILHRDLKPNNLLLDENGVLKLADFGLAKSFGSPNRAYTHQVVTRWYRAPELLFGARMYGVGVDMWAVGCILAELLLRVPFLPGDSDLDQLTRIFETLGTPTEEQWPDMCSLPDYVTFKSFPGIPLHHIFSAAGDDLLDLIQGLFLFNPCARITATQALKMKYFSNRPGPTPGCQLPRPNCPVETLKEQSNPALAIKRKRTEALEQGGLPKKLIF
CDK7, sequence (P51946 whole entry partner): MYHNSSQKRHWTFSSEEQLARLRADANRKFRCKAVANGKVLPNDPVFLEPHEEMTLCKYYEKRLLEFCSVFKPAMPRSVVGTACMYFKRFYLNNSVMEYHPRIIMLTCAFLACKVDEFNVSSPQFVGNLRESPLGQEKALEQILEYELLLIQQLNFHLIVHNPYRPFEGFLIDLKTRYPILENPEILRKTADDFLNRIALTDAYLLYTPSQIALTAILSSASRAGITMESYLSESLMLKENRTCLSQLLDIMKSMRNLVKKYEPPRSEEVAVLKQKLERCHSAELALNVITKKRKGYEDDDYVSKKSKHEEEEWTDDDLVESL
CDK7, sequence (P51948 whole entry partner): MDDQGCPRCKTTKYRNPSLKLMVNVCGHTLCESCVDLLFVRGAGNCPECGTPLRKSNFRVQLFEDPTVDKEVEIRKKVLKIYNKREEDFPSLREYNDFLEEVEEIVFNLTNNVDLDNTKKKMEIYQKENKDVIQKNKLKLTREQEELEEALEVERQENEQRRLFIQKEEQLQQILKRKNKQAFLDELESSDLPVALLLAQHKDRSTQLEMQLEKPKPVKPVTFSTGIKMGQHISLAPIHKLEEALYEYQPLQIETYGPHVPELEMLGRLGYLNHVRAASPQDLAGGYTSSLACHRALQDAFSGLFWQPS

CC1(C)/C(=C2/C(=O)Nc3ccc(S(N)(=O)=O)cc32)Nc2ccccc21 [ZK-304709, (Z)-3,3-dimethyl-2′-oxo-[2,3′-biindolinylidene]-5′-sulfonamide]
nanomolar range: IC50 CDK9, in words (CDK9) | IC50 CDK2, in words (CDK2) | IC50 CDK1, in words (CDK1) | IC50 CDK7, in words (CDK7) | IC50 CDK4, in words (CDK4)
